US10344039B2, “Macrocyclic spirocarbamate derivatives as factor XIa inhibitors, pharmaceutically acceptable compositions and their use” (MERCK SHARP & DOHME CORP., priority 2015, dated 2019)

Key:
[1] = target: T1, purified Human plasma kallikrein (Homo sapiens, UniProt P03952); experiment: Kallikrein Assay; type: biochemical; conditions: purified Human plasma kallikrein 0.5 nM; substrate Acetyl-K-P-R-AFC; 50 mM HEPES pH 7.4; Ki from IC50 by Cheng Prusoff equation; read-out: Hu P. Kallikrein
T1 construct: yields a heavy chain (371 amino acids) and a light chain (248 amino acids); purchased Enzyme Research Laboratories
T1 sequence (P03952 391-638 limits assumed): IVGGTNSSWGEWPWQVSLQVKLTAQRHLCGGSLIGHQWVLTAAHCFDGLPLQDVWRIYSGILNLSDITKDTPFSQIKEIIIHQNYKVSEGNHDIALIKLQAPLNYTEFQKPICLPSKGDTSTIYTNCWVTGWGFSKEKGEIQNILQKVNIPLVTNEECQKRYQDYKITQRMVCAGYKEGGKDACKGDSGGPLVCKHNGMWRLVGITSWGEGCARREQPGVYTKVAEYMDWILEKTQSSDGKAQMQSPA
T1 sequence (P03952 20-390 partner limits assumed): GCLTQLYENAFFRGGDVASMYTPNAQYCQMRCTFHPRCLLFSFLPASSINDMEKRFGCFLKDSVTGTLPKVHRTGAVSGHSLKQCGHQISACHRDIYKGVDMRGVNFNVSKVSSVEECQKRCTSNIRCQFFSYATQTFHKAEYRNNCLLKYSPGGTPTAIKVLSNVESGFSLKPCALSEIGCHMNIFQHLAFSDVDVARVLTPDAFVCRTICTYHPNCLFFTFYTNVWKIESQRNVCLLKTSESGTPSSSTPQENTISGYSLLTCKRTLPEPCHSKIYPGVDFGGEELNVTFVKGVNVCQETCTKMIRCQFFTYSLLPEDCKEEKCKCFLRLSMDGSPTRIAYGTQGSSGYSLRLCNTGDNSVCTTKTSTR
Description: The effectiveness of a compound of the present invention as an inhibitor of Kallikrein can be determined using a relevant purified serine protease, and an appropriate synthetic substrate. The rate of hydrolysis of the chromogenic or fluorogenic substrate by the relevant serine protease was measured both in the absence and presence of compounds of the present invention. Assays were conducted at room temperature or at 37° C. […] A decrease in the rate of fluorescence change in the presence of inhibitor is indicative of enzyme inhibition. Such methods are known to one skilled in the art. The results of this assay are expressed as the inhibitory constant, Ki. Kallikrein determinations were made in 50 mM HEPES buffer at pH 7.4 containing 150 mM NaCl, 5 mM CaCl2, and 0.1% PEG 8000 (polyethylene glycol; Fisher Scientific). Determinations were made using purified Human plasma kallikrein at a final concentration of 0.5 nM (Enzyme Research Laboratories) and the synthetic substrate, Acetyl-K—P-R-AFC (Sigma # C6608) at a concentration of […]. Activity assays were performed by diluting a stock solution of substrate at least tenfold to a final concentration ≤0.2 Km into a solution containing enzyme or enzyme equilibrated with inhibitor. Times required to achieve equilibration between enzyme and inhibitor were determined in control experiments. The reactions were performed under linear progress curve conditions and fluorescence increase measured at 405 Ex/510 Em nm. Values were converted to percent inhibition of the control reaction (after subtracting 100% Inhibition value). IC50 was determined by inflection point from a four parameter logistic curve fit. Ki was calculated using the Cheng Prusoff equation, Ki=IC50/(1+([S]/Km)). The activities shown by this assay indicate that the compounds of the invention may be therapeutically useful for treating or preventing various cardiovascular and/or cerebrovascular thromboembolic conditions in patients suffering from unstable angina, acute coronary syndrome, refractory angina, myocardial infarction, transient ischemic attacks, atrial fibrillation, stroke such as thrombotic stroke or embolic stroke, venous thrombosis, coronary and cerebral arterial thrombosis, cerebral and pulmonary embolism, atherosclerosis, deep vein thrombosis, disseminated intravascular coagulation, and reocclusion or restenosis of recanalized vessels.

[2] = target: T2, purified human Factor XIa (Homo sapiens, UniProt P03951); experiment: Factor XIa Assay; type: biochemical; conditions: purified human Factor XIa 40 pM; substrate Z-Gly-Pro-Arg-AFC 100 μM; 50 mM HEPES pH 7.4; read-out: Hu FXIa Ki
T2 construct: purified human Factor XIa; purchased Sekisui Diagnostics
T2 sequence (P03951 388-625 limits assumed): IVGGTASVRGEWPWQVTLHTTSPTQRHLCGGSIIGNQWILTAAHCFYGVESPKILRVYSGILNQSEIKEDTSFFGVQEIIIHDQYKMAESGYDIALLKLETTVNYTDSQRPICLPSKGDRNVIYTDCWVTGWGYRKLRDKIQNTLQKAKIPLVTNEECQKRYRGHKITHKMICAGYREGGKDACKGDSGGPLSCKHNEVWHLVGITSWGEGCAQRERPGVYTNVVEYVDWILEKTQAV
T2 sequence (P03951 19-387 partner limits assumed): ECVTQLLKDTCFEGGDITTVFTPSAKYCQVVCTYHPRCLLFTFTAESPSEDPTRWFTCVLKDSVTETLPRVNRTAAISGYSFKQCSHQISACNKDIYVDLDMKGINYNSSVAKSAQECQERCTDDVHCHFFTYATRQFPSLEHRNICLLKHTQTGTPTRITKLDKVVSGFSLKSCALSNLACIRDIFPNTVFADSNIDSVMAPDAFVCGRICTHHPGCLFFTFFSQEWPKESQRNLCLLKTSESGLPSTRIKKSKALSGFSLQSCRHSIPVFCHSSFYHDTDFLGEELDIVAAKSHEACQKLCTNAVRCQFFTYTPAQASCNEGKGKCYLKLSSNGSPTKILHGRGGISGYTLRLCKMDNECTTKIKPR
Description: The effectiveness of a compound of the present invention as an inhibitor of Coagulation Factor XIa can be determined using a relevant purified serine protease, and an appropriate synthetic substrate. The rate of hydrolysis of the chromogenic or fluorogenic substrate by the relevant serine protease was measured both in the absence and presence of compounds of the present invention. Assays were conducted at room temperature or at 37° C. […] A decrease in the rate of fluorescence change in the presence of inhibitor is indicative of enzyme inhibition. Such methods are known to one skilled in the art. The results of this assay are expressed as the inhibitory constant, Ki.
Factor XIa determinations were made in 50 mM HEPES buffer at pH 7.4 containing 150 mM NaCl, 5 mM CaCl2, and 0.1% PEG 8000 (polyethylene glycol; JT Baker or Fisher Scientific). Determinations were made using purified human Factor XIa at a final concentration of 40 pM (Sekisui Diagnostics) and he synthetic substrate, Z-Gly-Pro-Arg-AFC, TFA salt (Sigma #C0980) at a concentration of 100 μM.
Activity assays were performed by diluting a stock solution of substrate at least tenfold to a final concentration ≤0.1 Km into a solution containing enzyme or enzyme equilibrated with inhibitor. Times required to achieve equilibration between enzyme and inhibitor were determined in control experiments. Initial velocities of product formation in the absence (Vo) or presence of inhibitor (Vi) were measured. Assuming competitive inhibition, and that unity is negligible compared Km/[S], [I]/e, and [I]/e (where [S], [I], and e respectively represent the total concentrations, of substrate, inhibitor and enzyme), the equilibrium constant (Ki) for dissociation of the inhibitor from the enzyme can be obtained from the dependence of Vo/Vi on [I] shown in the following equation. Vo/Vi=1+[I]/Ki
The activities shown by this assay indicate that the compounds of the invention may be therapeutically useful for treating or preventing various cardiovascular and/or cerebrovascular thromboembolic conditions in patients suffering from unstable angina, acute coronary syndrome, refractory angina, myocardial infarction, transient ischemic attacks, atrial fibrillation, stroke such as thrombotic stroke or embolic stroke, venous thrombosis, coronary and cerebral arterial thrombosis, cerebral and pulmonary embolism, atherosclerosis, deep vein thrombosis, disseminated intravascular coagulation, and reocclusion or restenosis of recanalized vessels. The Ki values measured for each of the example compounds of the invention using this assay are reported in the tables above (as “Hu FXIa Ki (nM)”).

Ki [1] [nM]	Ki [2] [nM]	Structure (SMILES)
0.77	2.88	COC(=O)Nc1ccc2c(c1)NC(=O)CC/C=C\C[C@@H](C(=O)N1CCC[C@@]3(C1)OC(=O)Nc1ccc(Cl)c(F)c13)c1cc-2ccn1 [Example 22a, methyl ((R,Z)-10-((R)-6-chloro-5-fluoro-2-oxo-1,2-dihydrospiro[benzo[d][1,3]oxazine-4,3′-piperidine]-1′-carbonyl)-4-oxo-3-aza-1(4,2)-pyridina-2(1,2)-benzenacyclodecaphanen-2^4-yl)carbamate]
1.28	2.7	COC(=O)Nc1ccc2c(c1)NC(=O)CCCCC(C(=O)N1CCC[C@@]3(C1)OC(=O)Nc1ccc(Cl)c(F)c13)c1nc-2c(C)[nH]1 (mixture of isomers) [Example 12, methyl ((Z)-9-((R)-6-chloro-5-fluoro-2-oxo-1,2-dihydrospiro[benzo[d][1,3]oxazine-4,3′-piperidine]-1′-carbonyl)-1^5-methyl-4-oxo-1^1H-3-aza-1(4,2)-imidazola-2(1,2)-benzenacyclononaphane-2^4-yl)carbamate]
0.75	1.3	COC(=O)Nc1ccc2c(c1)NC(=O)CCCC[C@@H](C(=O)N1CC[C@@]3(C1)OC(=O)Nc1ccc(Cl)c(F)c13)c1ccnc-2c1 [Example 25a, methyl ((R)-9-((R)-6-chloro-5-fluoro-2-oxo-1,2-dihydrospiro[benzo[d][1,3]oxazine-4,3′-pyrrolidine]-1′-carbonyl)-4-oxo-3-aza-1(2,4)-pyridina-2(1,2)-benzenacyclononaphane-2^4-yl)carbamate]
0.39	0.42	COC(=O)Nc1ccc2c(c1)NC(=O)CCCC[C@@H](C(=O)N1CCC[C@@]3(C1)OC(=O)Nc1ccc(Cl)cc13)c1nc-2c(Cl)[nH]1 [Example 7a, methyl ((R,Z)-1^5-chloro-9-((R)-6-chloro-2-oxo-1,2-dihydrospiro[benzo[d][1,3]oxazine-4,3′-piperidine]-1′-carbonyl)-4-oxo-11H-3-aza-1(4,2)-imidazola-2(1,2)-benzenacyclononaphane-2^4-yl)carbamate]
12.7	45.2	COC(=O)Nc1ccc2c(c1)NC(=O)CCCCC(C(=O)N1CC[C@@]3(C1)OC(=O)Nc1ccc(Cl)cc13)c1cc(F)cc-2c1 (stereo partly drawn) [Example 28, methyl (9-((R)-6-chloro-2-oxo-1,2-dihydrospiro[benzo[d][1,3]oxazine-4,3′-pyrrolidine]-1′-carbonyl)-1^5-fluoro-4-oxo-3-aza-1(1,3),2(1,2)-dibenzenacyclononaphane-2^4-yl)carbamate]
1.11	0.6	COC(=O)Nc1ccc2c(c1)NC(=O)CCCC[C@@H](C(=O)N1CC[C@@]3(C1)OC(=O)Nc1ccc(Cl)c(F)c13)c1nc-2c(C)[nH]1 [Example 13b, methyl ((R,Z)-9-((R)-6-chloro-5-fluoro-2-oxo-1,2-dihydrospiro[benzo[d][1,3]oxazine-4,3′-pyrrolidine]-1′-carbonyl)-1^5-methyl-4-oxo-1^1H-3-aza-1(4,2)-imidazola-2(1,2)-benzenacyclononaphane-2^4-yl)carbamate]
0.96	0.67	COC(=O)Nc1ccc2c(c1)NC(=O)[C@H](C)CCCC(C(=O)N1CCC[C@@]3(C1)OC(=O)Nc1ccc(Cl)c(F)c13)c1nc-2c(Cl)[nH]1 (stereo partly drawn) [Example 10, methyl ((5R,Z)-1^5-chloro-9-((R)-6-chloro-5-fluoro-2-oxo-1,2-dihydrospiro[benzo[d][1,3]oxazine-4,3′-piperidine]-1′-carbonyl)-5-methyl-4-oxo-1^1H-3-aza-1(4,2)-imidazola-2(1,2)-benzenacyclononaphane-2^4-yl)carbamate]
0.57	0.34	COC(=O)Nc1ccc2c(c1)NC(=O)CCCCC(C(=O)N1CC[C@@]3(C1)OC(=O)Nc1ccc(Cl)c(F)c13)c1nc-2c(Cl)[nH]1 (mixture of isomers) [Example 9, methyl ((Z)-1^5-chloro-9-((R)-6-chloro-5-fluoro-2-oxo-1,2-dihydrospiro[benzo[d][1,3]oxazine-4,3′-pyrrolidine]-1′-carbonyl)-4-oxo-1^1H-3-aza-1(4,2)-imidazola-2(1,2)-benzenacyclononaphane-2^4-yl)carbamate]
0.82	2.74	COC(=O)Nc1ccc2c(c1)NC(=O)CCCC[C@@H](C(=O)N1CCC[C@@]3(C1)OC(=O)Nc1ccc(Cl)cc13)c1nc-2c[nH]1 [Example 3a, methyl ((R,Z)-9-((R)-6-chloro-2-oxo-1,2-dihydrospiro[benzo[d][1,3]oxazine-4,3′-piperidine]-1′-carbonyl)-4-oxo-1^1H-3-aza-1(4,2)-imidazola-2(1,2)-benzenacyclononaphane-2^4-yl)carbamate]

The remaining lines, values behind:

Structure (SMILES)	Ki [1] [nM]	Ki [2] [nM]
COC(=O)Nc1ccc2c(c1)NC(=O)CCCC[C@@H](C(=O)N1CCC[C@@]3(C1)OC(=O)Nc1ccc(Cl)c(F)c13)c1cc(F)cc-2c1 [Example 30b, methyl ((R)-9-((R)-6-chloro-5-fluoro-2-oxo-1,2-dihydrospiro[benzo[d][1,3]oxazine-4,3′-piperidine]-1′-carbonyl)-1^5-fluoro-4-oxo-3-aza-1(1,3),2(1,2)-dibenzenacyclononaphane-2^4-yl)carbamate]	1.52	68.8
COC(=O)Nc1ccc2c(c1)NC(=O)C(C)CCCC(C(=O)N1CCC[C@@]3(C1)OC(=O)Nc1ccc(Cl)cc13)c1cc-2ccn1 (single isomer, unassigned) [Example 15a]	1.7	31.1
CCOC(=O)C1C/C=C/CC(C(=O)N2CCC[C@@]3(C2)OC(=O)Nc2ccc(Cl)c(F)c23)c2nc(c[nH]2)-c2ccc(NC(=O)OC)cc2N1 (stereo partly drawn) [Example 31, ethyl (1^2Z,6E)-9-((R)-6-chloro-5-fluoro-2-oxo-1,2-dihydrospiro[benzo[d][1,3]oxazine-4,3′-piperidine]-1′-carbonyl)-2^4-((methoxycarbonyl)amino)-1^1H-3-aza-1(4,2)-imidazola-2(1,2)-benzenacyclononaphan-6-ene-4-carboxylate]	63.7	41.1
O=C1CCCCC(C(=O)N2CCC[C@@]3(C2)OC(=O)Nc2ccc(Cl)c(F)c23)c2cc(ccn2)-c2cc3ccc(=O)[nH]c3cc2N1 (mixture of isomers) [Example 27, 3-((R)-6-chloro-5-fluoro-2-oxo-1,2-dihydrospiro[benzo[d][1,3]oxazine-4,3′-piperidine]-1′-carbonyl)-1^1,1^2-dihydro-9-aza-1(6,7)-quinolina-2(4,2)-pyridinacyclononaphane-1^2,8-dione]	0.6	13
COC(=O)Nc1ccc2c(c1)NC(=O)CCCC[C@@H](C(=O)N1CC[C@@]3(C1)OC(=O)Nc1ccc(Cl)c(F)c13)c1cccc-2n1 (single isomer, unassigned) [Example 23b]	8.5	44.2
COC(=O)Nc1ccc2c(c1)NC(=O)CCCC[C@@H](C(=O)N1CC[C@@]3(C1)OC(=O)Nc1ccc(Cl)cc13)c1nc-2c[nH]1 (single isomer, unassigned) [Example 1a]	1.99	2.37
